Results on one molecule are retold here after PMC12615753, “Glutathione as a taste modulator: molecular mechanisms of interaction with umami and sweet taste receptors” (Food Chemistry: Molecular Sciences, 2025).

This test addresses T1, hTAS1R1 Q278A/rTAS1R3 (Homo sapiens, UniProt Q7RTX1, Q278A).
T1 construct: expressed in transfected cells; host or cells: HEK293T/17 (ATCC CRL-11268)
T1 sequence (Q7RTX1 21-841 Q278A): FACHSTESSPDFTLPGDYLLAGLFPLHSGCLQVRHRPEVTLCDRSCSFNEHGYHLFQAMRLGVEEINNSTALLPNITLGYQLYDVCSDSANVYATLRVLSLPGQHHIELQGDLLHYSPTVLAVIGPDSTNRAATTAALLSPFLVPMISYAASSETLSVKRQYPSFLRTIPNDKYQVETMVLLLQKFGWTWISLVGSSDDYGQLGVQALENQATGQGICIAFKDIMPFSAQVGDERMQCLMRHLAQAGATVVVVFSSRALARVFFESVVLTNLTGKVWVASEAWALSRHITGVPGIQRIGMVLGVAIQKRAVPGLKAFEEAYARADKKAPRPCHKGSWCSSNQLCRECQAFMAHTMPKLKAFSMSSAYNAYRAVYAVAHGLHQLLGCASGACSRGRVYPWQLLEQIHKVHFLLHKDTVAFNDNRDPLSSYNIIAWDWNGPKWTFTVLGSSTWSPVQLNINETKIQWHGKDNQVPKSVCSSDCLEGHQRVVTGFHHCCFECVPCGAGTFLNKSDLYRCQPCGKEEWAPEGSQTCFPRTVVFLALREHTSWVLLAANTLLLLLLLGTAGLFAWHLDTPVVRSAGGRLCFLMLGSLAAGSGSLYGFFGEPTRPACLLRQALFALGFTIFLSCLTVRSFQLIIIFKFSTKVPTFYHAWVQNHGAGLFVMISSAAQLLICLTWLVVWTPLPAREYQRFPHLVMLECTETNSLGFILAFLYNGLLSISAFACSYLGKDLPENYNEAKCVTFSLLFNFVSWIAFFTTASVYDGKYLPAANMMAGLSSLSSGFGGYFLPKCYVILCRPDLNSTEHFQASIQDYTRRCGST
T1 sequence (Q923K1 21-858 partner): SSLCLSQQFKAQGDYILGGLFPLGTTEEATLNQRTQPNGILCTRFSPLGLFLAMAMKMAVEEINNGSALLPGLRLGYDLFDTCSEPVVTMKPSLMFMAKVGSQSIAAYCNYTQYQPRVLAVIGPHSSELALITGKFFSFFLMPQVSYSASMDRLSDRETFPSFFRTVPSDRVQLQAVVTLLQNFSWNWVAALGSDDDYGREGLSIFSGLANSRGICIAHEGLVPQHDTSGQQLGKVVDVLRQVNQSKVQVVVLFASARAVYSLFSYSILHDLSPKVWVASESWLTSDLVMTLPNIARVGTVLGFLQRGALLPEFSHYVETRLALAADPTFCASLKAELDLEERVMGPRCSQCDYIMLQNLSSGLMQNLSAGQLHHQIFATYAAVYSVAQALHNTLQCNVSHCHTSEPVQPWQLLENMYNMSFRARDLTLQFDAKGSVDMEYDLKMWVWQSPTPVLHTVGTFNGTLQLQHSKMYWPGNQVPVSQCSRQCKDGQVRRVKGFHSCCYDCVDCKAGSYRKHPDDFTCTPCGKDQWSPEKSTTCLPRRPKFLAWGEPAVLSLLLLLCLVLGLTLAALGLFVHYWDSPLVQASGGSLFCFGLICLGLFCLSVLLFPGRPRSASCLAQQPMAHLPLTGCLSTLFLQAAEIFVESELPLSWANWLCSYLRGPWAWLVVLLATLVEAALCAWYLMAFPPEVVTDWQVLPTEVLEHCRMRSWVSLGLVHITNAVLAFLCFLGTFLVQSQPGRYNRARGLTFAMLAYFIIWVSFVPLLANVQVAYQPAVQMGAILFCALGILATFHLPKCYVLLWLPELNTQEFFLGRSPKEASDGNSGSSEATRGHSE
The test can be described thus: Calcium assay, hTAS1R1 mutant co-expressed with rTAS1R3. In kind it is cell-based, rat.

What is called EC50 is the midpoint of the concentration-response curve. Consider `N[C@@H](CCC(=O)N[C@@H](CS)C(=O)NCC(=O)O)C(=O)O` [GSH, γ-L-glutamyl-L-cysteinyl-glycine], for which the concentration giving a half-maximal response (EC50) was determined as 3.42 ± 0.073 mM. In addition, for the setting “Q278A”, the “effect of the added compound (1 mM) on the response to L-Glu” value is “synergy was observed” and the “response to the agonist alone, vs WT” value is listed as “significantly increased the initial amplitude”. For the same molecule, for the setting “Q278A, GSH”, the “Max ∆F/F0” value worked out at 1.46 ± 0.01 and the “R1 = mutant EC50/WT EC50” value worked out at 1.4.
